Drawing on patent publication US8829193B2, “PIM kinase inhibitors and methods of their use” (Novartis AG, priority 2008, dated 2014), this text covers IC50 and EC50 for three compounds.

One assay addresses Pim2 kinase (Homo sapiens (Human), UniProt Q9P1W9). Kind of assay: Pim2 ATP depletion assay. Particulars: 4 μM ATP, 10 μM BAD peptide, 5 nM PIM2. The format is biochemical.
The target of a further assay is Pim1 kinase (Homo sapiens (Human), UniProt P11309). Description: Pim1 ATP depletion assay. The assay is classed as biochemical. Particulars: 20 μM ATP, 40 μM BAD peptide, 2.5 nM PIM1.
In assay [1] the test system is KMS11 (human myeloma cell line). Description: Cell Proliferation Assay. The format is cell-based. Particulars: KMS-11, 72 h, KMS11 cells, 3 days, Cell Titer-Glow. The method, then:
KMS11 (human myeloma cell line), were cultured in IMDM supplemented with 10% FBS, sodium pyruvate and antibiotics. Cells were plated in the same medium at a density of 2000 cells per well into 96 well tissue culture plates, with outside wells vacant, on the day of assay. MM1.s (human myeloma cell line), were cultured in RPMI1640 supplemented with 10% FBS, sodium pyruvate and antibiotics. Cells were plated in the same medium at a density of 5000 cells per well into 96 well tissue culture plates, with outside wells vacant, on the day of assay.
Test compounds supplied in DMSO were diluted into DMSO at 500 times the desired final concentrations before dilution into culture media to 2 times final concentrations. Equal volumes of 2× compounds were added to the cells in 96 well plates and incubated at 37° C. for 3 days.
After 3 days plates were equilibrated to room temperature and equal volume of Cell Titer-Glow Reagent (Promega) was added to the culture wells. The plates were agitated briefly and luminescent signal was measured with luminometer.
Using the procedures for Cell Proliferation Assay described above, the EC50 concentration of compounds of the previous examples were determined in KMS11 cells as shown in the following table.

The target of the next assay is Pim3 kinase (Homo sapiens (Human), UniProt Q86V86). Description: Pim3 ATP depletion assay. The assay is classed as biochemical. Particulars: 40 μM ATP, 100 μM BAD peptide.

Sequence of Pim2 kinase (Q9P1W9 whole entry): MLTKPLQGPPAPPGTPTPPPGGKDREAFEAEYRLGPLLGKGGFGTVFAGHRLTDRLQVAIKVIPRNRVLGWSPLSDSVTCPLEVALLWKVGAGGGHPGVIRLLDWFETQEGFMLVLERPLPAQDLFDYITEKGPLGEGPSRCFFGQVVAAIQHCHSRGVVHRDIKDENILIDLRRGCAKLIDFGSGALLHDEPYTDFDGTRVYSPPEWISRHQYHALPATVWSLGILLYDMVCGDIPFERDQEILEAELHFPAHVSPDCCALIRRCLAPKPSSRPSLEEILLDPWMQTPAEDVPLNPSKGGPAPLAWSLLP
Sequence of Pim1 kinase (P11309 whole entry): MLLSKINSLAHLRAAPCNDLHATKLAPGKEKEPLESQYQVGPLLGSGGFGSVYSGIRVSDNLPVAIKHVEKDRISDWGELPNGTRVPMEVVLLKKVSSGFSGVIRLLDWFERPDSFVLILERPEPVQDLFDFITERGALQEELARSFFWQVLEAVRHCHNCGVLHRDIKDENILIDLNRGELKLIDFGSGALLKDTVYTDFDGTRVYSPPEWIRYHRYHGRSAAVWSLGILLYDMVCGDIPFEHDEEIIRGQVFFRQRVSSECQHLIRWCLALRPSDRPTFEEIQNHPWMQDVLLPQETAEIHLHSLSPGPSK

`N[C@H]1C[C@@H](C(F)(F)F)CN(c2ccncc2NC(=O)c2csc(-c3c(F)cccc3F)n2)C1` [Example 27, N-(4-((3S,5R)-3-amino-5-(trifluoromethyl)piperidin-1-yl)pyridin-3-yl)-2-(2,6-difluorophenyl)thiazole-4-carboxamide]: the half-maximal inhibitory concentration (IC50) (commonly the point on the concentration scale where inhibition reaches its midpoint) at Pim2 kinase turned out to be 3 nM; on Pim1 kinase, 1 nM; at Pim3 kinase, 3 nM. For the same compound, the EC50 (as a rule, the concentration needed to bring the measured effect to its halfway point) in assay [1] turned out to be 460 nM.
Consider `C[C@H]1CN(c2ccncc2NC(=O)c2csc(-c3c(F)cccc3F)n2)C[C@@H](N)[C@@H]1O` [Example 36, N-(4-((3R,4R,5S)-3-amino-4-hydroxy-5-methylpiperidin-1-yl)pyridin-3-yl)-2-(2,6-difluorophenyl)thiazole-4-carboxamide], for which the IC50 against Pim2 kinase was 3 nM; against Pim1 kinase it was 1 nM; against Pim3 kinase, 3 nM. This compound came in with an EC50 in assay [1] of 560 nM.
As to `C[C@H]1C[C@@H](c2ccncc2NC(=O)c2csc(-c3c(F)cccc3F)n2)C[C@@H](N)[C@@H]1O` [Example 41, N-(4-((1R,3R,4R,5S)-3-amino-4-hydroxy-5-methylcyclohexyl)pyridin-3-yl)-2-(2,6-difluorophenyl)thiazole-4-carboxamide (and enantiomer)], the figures for the half-inhibitory concentration (IC50) on Pim2 kinase, on Pim1 kinase and on Pim3 kinase were 27 nM, 4 nM and 8 nM, respectively. The same compound displayed an EC50 in assay [1] of more than 10000 nM.
